Values joined by “and” are separate entries in the source; they are usually repeats but may differ in a detail not shown here. Equal entries are not always repeated.
How the values were obtained:
[1] = tested on: bean leaf (Vicia faba); experiment: Uptake (stomatal infiltration) of ^14C-glyphosate isopropylamine salt into bean leaf; assay type: in vivo
Description: The impact of the TSA-1/TSA-2 blends on the uptake of ^14C-glyphosate (herbicide) solutions into bean leaf (Vicia fava) was determined at 10 minutes after application, according to the method described by Stevens et al., Contributions of stomatal infiltration and cuticular penetration to enhancements of foliar uptake by surfactants. […]. Sci., 33, 371-382, to establish the contribution of trisiloxane alkoxylate (TSA) surfactants on the speed of uptake, via stomatal infiltration). Here glyphosate solutions containing 0.4% TSA surfactant was applied to bean leaf using a micro-syringe. At 10 minutes after application, the leaf was washed with aqueous ethanol and uptake was determined by subtraction, using a scintillation counter to measure residual ^14C-glyphosate-IPA salt (Stevens et al. […]. Sci., 33, 371-382). The uptake by stomatal infiltration of ^14C-glyphosate-isopropyl amine salt into bean-leaf (Vicia faba) at 10 minutes after application was determined as outlined in Example 4.

[2] = Dynamic surface tension (Kruss Maximum Bubble Pressure tensiometer); assay type: physicochemical; settings: 0.4 wt % in deionized water
Description: Dynamic surface tension (DST) was measured using a Kruss Maximum Bubble Pressure tensiometer. TSA solutions were prepared at 0.4 wt % in deionized water, further purified with a Milli-Q ultrapure filtration system (Millipore Corp.). The data for surface tension vs time (milliseconds) was plotted and then the surface tension was calculated from a trend line to generate surface tension data at 75, 100, 150 and 200 milliseconds (mSec).

Dynamic Surface Tension, IFDT 75 mSec ([2]; calculated from trend line at 75 mSec): 49.5 mN/m
Dynamic Surface Tension, IFDT 100 mSec ([2]; calculated from trend line at 100 mSec): 47.6 mN/m
Dynamic Surface Tension, IFDT 150 mSec ([2]; calculated from trend line at 150 mSec): 43.9 mN/m
Dynamic Surface Tension, IFDT 200 mSec ([2]; calculated from trend line at 200 mSec): 40.1 mN/m
Structure (SMILES): C[Si](C)(C)O[Si](C)(CCCOCCOCCOCCOCCOCCOCCOCCOCCO)O[Si](C)(C)C [TSA-1-B]
Uptake (%) Observed ([1]; ^14C-glyphosate into bean, 0.4% TSA adjuvant, 10 minutes after application): 79.3 ab % and 90.2 a % and 88.0 ab % and 85.9 a %
Uptake (%) Predicted ([1]; weighted average of the components, 0.4% adjuvant, 10 minutes): 79.3% and 90.2% and 88.0% and 85.9%
